# Data published in article PMC11561238, “Discovery and binding mode of small molecule inhibitors of the apo form of human TDO2” (Scientific Reports, 2024).
# Target: T1, recombinant human TDO2 (holo-TDO2) (Homo sapiens, UniProt P48775)
# T1 construct: a construct encoding amino acids 19–406 of human TDO2 with an N-terminal six histidine tag; PreScission protease cleavage site (linker) (N); made in house; host or cells: E. coli BL21(DE3)
# Assay: Holo-TDO2 enzymatic assay
# Format: biochemical
# Method: The IC50 curve is shown in supplementary Fig. S1 online. We speculate that the observed IC50 shift may be due to the kinetics of heme dissociation from holo-TDO2 and/or the absence of alternative heme binding proteins in the assay system. The structurally similar Cpd-2 was not tested in the enzymatic assay.
# For the enzymatic assay, recombinant human TDO2 comprising amino acids […] with a N-terminal hexahistidine tag, expressed in Escherichia coli and purified to homogeneity, was incubated in assay buffer consisting of 75 mM phosphate buffer at pH 7.0 supplemented with 100 µM ascorbic acid, 50 U/ml catalase, 0.01% bovine serum albumin (BSA), and 0.01% Tween 20 (protocol modified from[45]).
# T1 sequence (P48775 19-406): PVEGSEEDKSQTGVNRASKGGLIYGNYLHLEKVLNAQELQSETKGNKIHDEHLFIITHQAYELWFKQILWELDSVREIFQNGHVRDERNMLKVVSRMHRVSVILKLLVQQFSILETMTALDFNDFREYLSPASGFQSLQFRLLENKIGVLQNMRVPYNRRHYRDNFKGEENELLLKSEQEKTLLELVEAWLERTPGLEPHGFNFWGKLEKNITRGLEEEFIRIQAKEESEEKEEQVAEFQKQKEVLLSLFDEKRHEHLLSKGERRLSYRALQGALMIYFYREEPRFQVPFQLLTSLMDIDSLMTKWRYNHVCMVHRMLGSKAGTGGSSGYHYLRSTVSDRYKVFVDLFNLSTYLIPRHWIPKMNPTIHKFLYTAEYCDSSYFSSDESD
structure (smiles),measurement,setting,value
"CCCc1ccccc1NC(=O)N(C(C)c1ccccc1)C1CCCn2c1nc(OC)c(C(=O)OCC)c2=O (centres unmarked) [Cpd-1, ethyl 9-(3-(2-propylphenyl)-1-(1-phenylethyl)ureido)-2-methoxy-4-oxo-6,7,8,9-tetrahydro-4H-pyrido[1,2-a]pyrimidine-3-carboxylate]",IC50,"30 min assay at room temperature after 30 min pre-incubation with holo-TDO2, read-out: enzymatic assay IC50 (holo form of TDO2)",17.4 µM
same,fold less potent in enzymatic assay than in the cellular assay,enzymatic IC50 vs TDO2 cellular IC50,53 fold
